Laboratory results taken from article PMC7587962, “Evaluation of Cytotoxicity and α-Glucosidase Inhibitory Activity of Amide and Polyamino-Derivatives of Lupane Triterpenoids” (Molecules, 2020).

How the values were obtained:
CCRF-CEM = assay: NCI-60 SRB screen: leukemia CCRF-CEM; assay type: cell-based; conditions: Homo sapiens, 48 h
RPMI-8226 = assay: NCI-60 SRB screen: leukemia RPMI-8226; assay type: cell-based; conditions: Homo sapiens, 48 h, RPMI-8226
SR = assay: NCI-60 SRB screen: leukemia SR; assay type: cell-based; conditions: Homo sapiens, 48 h
A549/ATCC = assay: NCI-60 SRB screen: non-small cell lung cancer A549/ATCC; assay type: cell-based, human; conditions: A549/ATCC
HOP-62 = assay: NCI-60 SRB screen: non-small cell lung cancer HOP-62; assay type: cell-based, human; conditions: HOP-62
NCI-H226 = assay: NCI-60 SRB screen: non-small cell lung cancer NCI-H226; assay type: cell-based, human; conditions: NCI-H226
NCI-H522 = assay: NCI-60 SRB screen: non-small cell lung cancer NCI-H522; assay type: cell-based, human; conditions: NCI-H522
HCC-2998 = assay: NCI-60 SRB screen: colon cancer HCC-2998; assay type: cell-based, human; conditions: HCC-2998
HCT-116 = assay: NCI-60 SRB screen: colon cancer HCT-116; assay type: cell-based; conditions: Homo sapiens, 48 h, HCT-116
HCT-15 = assay: NCI-60 SRB screen: colon cancer HCT-15; assay type: cell-based, human; conditions: HCT-15
SW-620 = assay: NCI-60 SRB screen: colon cancer SW-620; assay type: cell-based; conditions: Homo sapiens, 48 h, SW-620
SF-268 = assay: NCI-60 SRB screen: CNS cancer SF-268; assay type: cell-based, human; conditions: SF-268
SF-295 = assay: NCI-60 SRB screen: CNS cancer SF-295; assay type: cell-based, human; conditions: SF-295
SNB-19 = assay: NCI-60 SRB screen: CNS cancer SNB-19; assay type: cell-based, human; conditions: SNB-19
SNB-75 = assay: NCI-60 SRB screen: CNS cancer SNB-75; assay type: cell-based, human; conditions: SNB-75
U251 = assay: NCI-60 SRB screen: CNS cancer U251; assay type: cell-based; conditions: Homo sapiens, U251
LOX IMVI = assay: NCI-60 SRB screen: melanoma LOX IMVI; assay type: cell-based, human
M14 = assay: NCI-60 SRB screen: melanoma M14; assay type: cell-based, human; conditions: M14
SK-MEL-2 = assay: NCI-60 SRB screen: melanoma SK-MEL-2; assay type: cell-based, human; conditions: SK-MEL-2
SK-MEL-28 = assay: NCI-60 SRB screen: melanoma SK-MEL-28; assay type: cell-based, human; conditions: SK-MEL-28
SK-MEL-5 = assay: NCI-60 SRB screen: melanoma SK-MEL-5; assay type: cell-based, human; conditions: SK-MEL-5
UACC-62 = assay: NCI-60 SRB screen: melanoma UACC-62; assay type: cell-based, human; conditions: UACC-62
IGROV1 = assay: NCI-60 SRB screen: ovarian cancer IGROV1; assay type: cell-based, human; conditions: IGROV1
OVCAR-4 = assay: NCI-60 SRB screen: ovarian cancer OVCAR-4; assay type: cell-based; conditions: Homo sapiens; OVCAR-4; five concentrations, 48 h, SRB; read-out: GI50
OVCAR-8 = assay: NCI-60 SRB screen: ovarian cancer OVCAR-8; assay type: cell-based, human; conditions: OVCAR-8
786-0 = assay: NCI-60 SRB screen: renal cancer 786-0; assay type: cell-based, human; conditions: 786-0
SN12C = assay: NCI-60 SRB screen: renal cancer SN12C; assay type: cell-based, human
TK-10 = assay: NCI-60 SRB screen: renal cancer TK-10; assay type: cell-based, human; conditions: TK-10
UO-31 = assay: NCI-60 SRB screen: renal cancer UO-31; assay type: cell-based, human; conditions: UO-31
DU-145 = assay: NCI-60 SRB screen: prostate cancer DU-145; assay type: cell-based, human; conditions: DU-145
MCF7 = assay: NCI-60 SRB screen: breast cancer MCF7; assay type: cell-based; conditions: Homo sapiens, 48 h, MCF7
HS 578T = assay: NCI-60 SRB screen: breast cancer HS 578T; assay type: cell-based, human; conditions: HS 578T
MDA-MB-468 = assay: NCI-60 SRB screen: breast cancer MDA-MB-468; assay type: cell-based, human
[1] = tested on: 60 human tumor cell lines; conditions: single dose 10 µM
CNS cancer subpanel = assay: NCI-60 screen, subpanel CNS cancer
Ovarian Cancer subpanel = assay: NCI-60 screen, subpanel Ovarian Cancer
[2] = single dose 10 µM, read-out: Percentage Cell Growth
[3] = five concentrations, SRB, read-out: GI50
[4] = Homo sapiens, five concentrations, 48 h, SRB, read-out: GI50

C=C(C)[C@@H]1CC[C@]2(C(=O)NCCNCCNCCN)CC[C@]3(C)[C@H](CC[C@@H]4[C@@]5(C)CC[C@H](O)C(C)(C)[C@@H]5CC[C@]43C)[C@@H]12 [Compound 6]
activity at 10 µM (CCRF-CEM; [2]): 5.18%
GI50 (CCRF-CEM; [3]): 4.55 µM
activity at 10 µM (RPMI-8226; [2]): -8.15%
GI50 (RPMI-8226; [3]): 2.81 µM
activity at 10 µM (SR; [2]): -4.72%
GI50 (SR; [3]): 6.76 µM
Percentage Cell Growth (A549/ATCC; single dose 10 µM): −64.63%
GI50 (A549/ATCC; [4]): 4.97 µM
Percentage Cell Growth (HOP-62; single dose 10 µM): −69.12%
GI50 (HOP-62; [4]): 16.5 µM
GI50 (NCI-H226; [4]): 15.5 µM
Percentage Cell Growth (NCI-H226; single dose 10 µM): −23.56%
GI50 (NCI-H522; [4]): 10.3 µM
Percentage Cell Growth (NCI-H522; single dose 10 µM): −57.83%
Percentage Cell Growth (HCC-2998; single dose 10 µM): −90.36%
GI50 (HCC-2998; [4]): 14.1 µM
activity at 10 µM (HCT-116; [2]): -26.5%
GI50 (HCT-116; [3]): 4.4 µM
Percentage Cell Growth (HCT-15; single dose 10 µM): −24.81%
GI50 (HCT-15; [4]): 11.5 µM
activity at 10 µM (SW-620; [2]): -86.7%
GI50 (SW-620; [3]): 14.7 µM
GI50 (SF-268; [4]): 13.5 µM
Percentage Cell Growth (SF-268; single dose 10 µM): −30.99%
GI50 (SF-295; [4]): 13.8 µM
Percentage Cell Growth (SF-295; single dose 10 µM): −84.72%
GI50 (SNB-19; [4]): 12.9 µM
Percentage Cell Growth (SNB-19; single dose 10 µM): −74.52%
GI50 (SNB-75; [4]): 11.1 µM
Percentage Cell Growth (SNB-75; single dose 10 µM): −79.32%
activity at 10 µM (U251; U-251, 48 h, single dose 10 µM, read-out: Percentage Cell Growth): -71.7%
GI50 (U251; U-251, five concentrations, 48 h, SRB, read-out: GI50): 12.7 µM
GI50 (LOX IMVI; [4]): 14.9 µM
Percentage Cell Growth (LOX IMVI; single dose 10 µM): −41.03%
GI50 (M14; [4]): 11 µM
Percentage Cell Growth (M14; single dose 10 µM): −30.98%
GI50 (SK-MEL-2; [4]): 16.8 µM
Percentage Cell Growth (SK-MEL-2; single dose 10 µM): −65.39%
GI50 (SK-MEL-28; [4]): 16 µM
Percentage Cell Growth (SK-MEL-28; single dose 10 µM): −98.68%
GI50 (SK-MEL-5; [4]): 11.1 µM
Percentage Cell Growth (SK-MEL-5; single dose 10 µM): −90.10%
GI50 (UACC-62; [4]): 9.29 µM
Percentage Cell Growth (UACC-62; single dose 10 µM): −100.00%
GI50 (IGROV1; Homo sapiens, IGROV-1, five concentrations, 48 h, SRB, read-out: GI50): 16.1 µM
Percentage Cell Growth (IGROV1; single dose 10 µM): −81.43%
GI50 (OVCAR-4): 14.1 µM
GI50 (OVCAR-8; [4]): 18.8 µM
Percentage Cell Growth (OVCAR-8; single dose 10 µM): −12.90%
Percentage Cell Growth (786-0; single dose 10 µM): −83.51%
GI50 (786-0; [4]): 12.4 µM
GI50 (SN12C; [4]): 13.5 µM
Percentage Cell Growth (SN12C; single dose 10 µM): −53.68%
GI50 (TK-10; [4]): 15.8 µM
Percentage Cell Growth (TK-10; single dose 10 µM): −67.30%
GI50 (UO-31; [4]): 11.7 µM
Percentage Cell Growth (UO-31; single dose 10 µM): −100.00%
Percentage Cell Growth (DU-145; single dose 10 µM): −8.34%
GI50 (DU-145; [4]): 14.1 µM
activity at 10 µM (MCF7; [2]): -60.5%
GI50 (MCF7; [3]): 13.2 µM
Percentage Cell Growth (HS 578T; single dose 10 µM): −23.26%
GI50 (HS 578T; [4]): 20.1 µM
GI50 (MDA-MB-468; [4]): 8.88 µM
Percentage Cell Growth (MDA-MB-468; single dose 10 µM): −48.60%
cancer cell lethality, range of percentage growth ([1]; cell lines with negative growth): −4.72% to −100%
cases of cancer cell lethality ([1]; number of cell lines): 57
MID b, average sensitivity of all cell line of particular subpanel (CNS cancer subpanel): 12.52 µM
Selectivity, ratio MID a: MID b (CNS cancer subpanel): 0.97
MID b, average sensitivity of all cell line of particular subpanel (Ovarian Cancer subpanel): 14.10 µM
Selectivity, ratio MID a: MID b (Ovarian Cancer subpanel): 0.86
